According to US4356167A, “Liposome drug delivery systems” (Sandoz, Inc., priority 1981, dated 1982):
“And” between values parts separate entries of the source, which are not always exact repeats. Identical values can stand only once.

Test system: blood glucose
Assay: Blood glucose levels in mice after oral or i.m. dosing of insulin liposomes (Example 2)
Assay type: in vivo
Details: 10μ/kg
Description: Insulin concentration of the liposomes was 11.69%. Suspensions of the liposome compositions A and B were given orally to mice at concentrations of A-50 U/0.1 ml/10 gms. of body weight; and B-25 U/0.1 ml/10 gms of body weight. A control group received 0.5% carboxymethyl cellulose concurrently.
Composition A was diluted 1:10 for injection i.m. as a control.
After two and four hours the animals were sacrificed by anesthetizing with 85 mg/kg of sodium hexobarbital i.p. and collecting blood via cardiac puncture. The collected blood was placed in an Auto Analyzer Cup containing 0.025 cc. of heparin 1000 units/ml. The blood samples were capped, shaken, and kept in an ice bucket. Glucose was determined by the Auto Analyzer potassium ferriccyanide method No. N-2b.
Carboxymethyl cellulose given either by p.o. or i.m. route has the same effect on blood glucose. Therefore, the test materials whether given p.o. or i.m. can be related to the carboxymethyl cellulose control.

Bovine Pancreatic Insulin: Bovine pancreatic insulin, Sigma Chemical
% Δ blood glucose 2 Hrs. Post (down arrow, decrease vs control) (2 hrs): 82% | Blood glucose levels 2 Hrs. Post, individual animals (2 hrs): 14 MG/100 ml and 12 MG/100 ml and 16 MG/100 ml | Blood glucose levels 2 Hrs. Post, mean (2 hrs): 14.0 ± 8 MG/100 ml | % Δ blood glucose 4 Hrs. Post (down arrow, decrease vs control) (4 hrs): 75% | Blood glucose levels 4 Hrs. Post, individual animals (4 hrs): 37 MG/100 ml and 10 MG/100 ml and 27 MG/100 ml and 31 MG/100 ml | Blood glucose levels 4 Hrs. Post, mean (4 hrs): 26.3 MG/100 ml
